{"source": "patent US20040219217A1", "about": "“Conjugates of polysaccharide polymers of natural origin” (priority 2001, published 2004)", "key": {"[1]": {"tested_on": "experimental sclerosis in femoral veins", "assay": "experimental sclerosis in rabbits' femoral veins", "type": "in vivo", "conditions": "rabbit femoral vein, carbon tetrachloride as sclerotizing agent, gauze bandage, after ten days", "experimental": "4. Influence of the application of derivatized cotton fibres on the entity of experimental sclerosis in rabbits' femoral veins.\nAfter a suitable depilation a rabbit's femoral vein is closed for a length of about 5 cm by means of suture stitches downstream and upstream.\nWithin the separated area 0.05 ml of carbon tetrachloride in 10% solution (Fluka 87031) is added as sclerotizing agent.\nThe area is suitably bandaged with normal cotton gauzes (control) or derivatized gauzes so that they perfectly adhere to the treated area.\nAfter ten days the vein fragments undergoing stasis are taken and controlled with a microscope to check the parietal state and the consistency of the sclerotizing deposits.\nIt is thus possible to observe how the application in the area receiving layers of derivatized cotton gauzes with: […]"}, "[2]": {"assay": "in vitro cleavage of the conjugation in artificial sweat", "type": "physicochemical", "conditions": "18 h hydrolysis, skin's usual pH, 37° C.", "experimental": "In the following table 2, different chemical conjugations contemplated by the present invention have been tested for in vitro cleavage under conditions simulating the topical application of the polysaccharide polymers of the present invention to the skin. In particular, for evaluating the biodegradability of a given chemical conjugation established between cotton and an active substance, the conjugate is subjected to hydrolysis at the skin's usual pH at 37° C. under mild agitation in the presence of an enzymatic mixture known as “artificial sweat”. After the pre-established time period of contact with the hydrolysis medium, the same was analyzed for the active substances or their fragments contained therein. The examples as listed below were chosen on the following grounds: […]"}, "[3]": {"tested_on": "granuloma from cotton pellets", "assay": "induction of granuloma from cotton pellets", "type": "in vivo", "conditions": "rats, subcutaneous cotton pellet 1 g, after fifteen days, vs simple cotton", "source_text": "3. Influence of fibre derivatized with anti-inflammatories or with immunostimulating agents on the phlogogenic process.\nThe experiments have been carried out on rats through the test of induction of granuloma from “cotton pellets”.\nAccording to this test cotton pellets having a pre-established weight (1 g) and shape are introduced into the subcutaneous region of the subaxillary area of the animals using a cannula which can pierce the skin and the sub-skin (the scar is closed again with a suture stitch).\nAround the cotton pellet a “granuloma” collagen deposit is formed, whose entity is proportional to the phlogogenic process.\nAfter fifteen days from the operation the granuloma is taken from the animal under anesthesia and it is weighed to determine its entity.\nIn the present case the cotton used as a base for the implantation of the granuloma consists of: […]"}, "UV-induced edema in skin": {"tested_on": "UV-induced edema in skin", "assay": "UV-induced edema (erythema) in rats' skin", "type": "in vivo", "conditions": "daily application, vs animals with no application", "experimental": "6. Influence of the application of derivatized cotton fibres on UV-induced edema in rats' skin.\nAdult rats are depilated on their backs and are then exposed to UV radiations until a consistent skin edema forms.\nThe exposition is carried out only on pre-established circular areas using suitable pierced masks.\nThen normal cotton gauzes (controls) or gauzes obtained from fibre derivatized with a medicament are applied with a good adherence onto the inflamed areas. Simultaneously another group of animals is tested to check the effectiveness of the application of the same medicaments in form of 5% gel.\nThe regression of the erythema defined as the reduction of the entity and surface of the reddening area is controlled daily with respect to control animals with no application, and immediately afterwards the medicament is applied again in the various forms.\nOn the 5th day the average extension of the erythema surface is measured and its reduction in percentage with respect to the animals with no application is calculated."}, "mite population": {"tested_on": "mite population", "conditions": "dust collected after two days, vs underivatized fabrics", "experimental": "8. Performance of anti-mite fabrics.\nCotton fibres conjugated to acaricides (as set out in the chemical experimental part above) were used for obtaining fabrics (woven and non-woven) used in turn for the manufacture of household articles (curtains, carpet floor and the like) placed in living environments. In particular, living environments (flats, apartments and houses) at the countryside at locations particularly exposed to dust and ventilation were chosen. Moreover, the tests were conducted during spring, which is the period with the highest mite contamination risk.\nAfter two days of total exposure of the living environments to the open air, at the point in time zero, the dust was removed through vacuum cleaning and the presence and the status of the mite population contained therein was subjected to microscopic examination. Thereafter, some of the living environments, after appropriate randomization, were equipped with the fabrics according to the invention obtained from fibres conjugated to acaricides, thus making up a first test group. On the other hand, the remaining living environments were equipped with fabrics from customary cotton thereby making up a second test group as a control for the development of the mite population.\nAfter another two days, the dust from both of the test groups was collected and the overall number of mites as well as the number of living mites was established."}, "Candida albicans": {"tested_on": "Candida albicans", "assay": "plate culture growth under derivatized cotton gauze", "type": "cell-based", "conditions": "C. albicans, 24 hours at 37° C., vs normal growth conditions", "source_text": "(§1) 2. Evaluation of the influence of cotton derivatized with germicides, with anti-bacterial or anti-fungi agents in the development and amount of microorganic flora.\n(§2) The influence of suitably derivatized cotton fibre on the development of microorganic flora has been determined “in vitro” on plate growing cultures of various micro-organisms: Candida albicans, Escherichia coli, Staphylococcus aureus isolated and characterized by contaminated organic material.\n(§3) To this purpose growth selective mediums are prepared (sabouraud agar for fungi and nutrient agar for bacteria) with which Petri dishes are prepared.\n(§4) On the medium surface the microorganism culture is applied by deposition of one ml of a suspension of said microorganism containing 10^9 microorganisms, lightly agitating so as to cover the whole plate surface.\n(§5) A cotton gauze obtained from fibre derivatized with the various substances taken into consideration is then applied onto the surface; the whole is then placed in a thermostat at 37° C.\n(§6) After 24 hours the gauze is removed and the developed colonies are compared with plates in normal growth conditions.\n(§7) The reduction in percentage of the growth in the plates characterized by conjugated gauze is evaluated with respect to normal growth conditions."}, "Escherichia coli": {"tested_on": "Escherichia coli", "assay": "plate culture growth under derivatized cotton gauze", "type": "cell-based", "conditions": "E. coli, 24 hours at 37° C., vs normal growth conditions", "source_text": "as §1, §2, §3, §4, §5, §6, §7"}, "Staphylococcus aureus": {"tested_on": "Staphylococcus aureus", "assay": "plate culture growth under derivatized cotton gauze", "type": "cell-based", "conditions": "S. aureus, 24 hours at 37° C., vs normal growth conditions", "source_text": "as §1, §2, §3, §4, §5, §6, §7"}, "[4]": {"tested_on": "subcutaneous lipid deposit", "assay": "experimental subcutaneous lipid deposit in rats", "type": "in vivo", "conditions": "abdominal tissue, gauze applied from the eighth day, after thirty days", "experimental": "7. Influence of the application of derivatized cotton fibres on experimental subcutaneous lipid deposit in rats.\nThe experiments were carried out on adult rats by injecting into their subcutaneous abdominal areas a lipid fraction rich in cholesterol (Sigma L 4646), and daily repeating the administrations until a stabilized subcutaneous lipid deposit is obtained; the fat mixture is injected in six adjacent sites in a volume of 0.2 ml/location for 7 days.\nThen, from the eighth day on, cotton gauzes obtained from fibre derivatized with lipase (example II.F. above) are applied onto said areas in a perfectly adhering way.\nAfter thirty days the animals are killed and the treated abdomen areas is taken. Aliquots of said area of about 2 g, precisely weighed, are homogenized in a Waring blender and the lipid content is extracted by adding aliquots of ethyl ether under strong stirring: three extractions with 20 ml of solvent each.\nThe ether fractions are mixed and concentrated in a rotary evaporator until dryness.\nThe concentration/g of extracted lipid tissue is determined by weighing said extracts."}}, "data": [{"substance": "cotton-S—S—CH2—CH(COOH)—N═CH-heparin", "values": [{"measurement": "tissue sclerotic state", "setting": "[1]", "value": "reduce the tissue sclerotic state to a consistent extent"}, {"measurement": "% of released active principle", "setting": "[2]", "value": 50.4, "unit": "%"}]}, {"substance": "cotton-S-S-cys-polylys-(PABA-hydrocortisone)n", "values": [{"measurement": "% reduction in the weight of the granuloma", "setting": "[3]", "value": 90.0, "unit": "%"}, {"measurement": "% reduction of the erythema extension with respect to controls on the 5th day after the induction", "setting": "UV-induced edema in skin", "value": 95, "unit": "%"}]}, {"substance": "cotton-CH═N-lys-NH—CO-PABA-benzylbenzoate [III.B.2.1.1.]", "values": [{"measurement": "Decrease (%) of total living mite population", "setting": "mite population", "value": 58, "unit": "%"}]}, {"substance": "cotton-CH═N-procaine [Cotton/procaine]", "values": [{"measurement": "% of released active principle", "setting": "[2]", "value": 76.3, "unit": "%"}]}, {"substance": "cotton-S—S—CH2—CH(COOH)—NH—CO-naproxen", "values": [{"measurement": "% reduction in the weight of the granuloma", "setting": "[3]", "value": 30.0, "unit": "%"}]}, {"substance": "cotton-S-S-cys-PABA-hydrocortisone", "values": [{"measurement": "% reduction in the weight of the granuloma", "setting": "[3]", "value": 55.0, "unit": "%"}, {"measurement": "% reduction of the erythema extension with respect to controls on the 5th day after the induction", "setting": "UV-induced edema in skin", "value": 60.0, "unit": "%"}]}, {"substance": "cotton-CH═N-polylys-(NH—CO-PABA-benzylbenzoate)n [III.B.2.2.1.]", "values": [{"measurement": "Decrease (%) of total living mite population", "setting": "mite population", "value": 94, "unit": "%"}]}, {"substance": "cotton-CH2—NH-lys-NH—CH2-Ph-OH", "values": [{"measurement": "% reduction in the development of colonies", "setting": "Candida albicans", "value": 75, "unit": "%"}, {"measurement": "% reduction in the development of colonies", "setting": "Escherichia coli", "value": 85, "unit": "%"}, {"measurement": "% reduction in the development of colonies", "setting": "Staphylococcus aureus", "value": 85, "unit": "%"}, {"measurement": "% of released active principle", "setting": "[2]", "value": 1.2, "unit": "%"}]}, {"substance": "cotton-S—S—CH2—CH(NH—CO-lipase)-CO—NH-lipase", "values": [{"measurement": "lower lipid content than the controls", "setting": "[4]", "value": 45, "unit": "%"}]}, {"substance": "cotton-S-S-cys-polylys-naproxen", "values": [{"measurement": "% reduction in the weight of the granuloma", "setting": "[3]", "value": 64.0, "unit": "%"}]}, {"substance": "cotton-CH2—NH-lys-NH—CO-PABA-benzyl benzoate [III.B.2.1.2.]", "values": [{"measurement": "Decrease (%) of total living mite population", "setting": "mite population", "value": 59, "unit": "%"}]}, {"substance": "cotton-CH2—NH-polylys-(NH—CO-PABA-benzylbenzoate)n [III.B.2.2.2.]", "values": [{"measurement": "Decrease (%) of total living mite population", "setting": "mite population", "value": 100, "unit": "%"}]}, {"substance": "cotton-CH═N-gramicidin", "values": [{"measurement": "% reduction in the development of colonies", "setting": "Candida albicans", "value": 65, "unit": "%"}, {"measurement": "% reduction in the development of colonies", "setting": "Escherichia coli", "value": 80, "unit": "%"}, {"measurement": "% reduction in the development of colonies", "setting": "Staphylococcus aureus", "value": 90, "unit": "%"}]}, {"substance": "cotton-S—S-IgG [Cotton/IgG]", "values": [{"measurement": "% of released active principle", "setting": "[2]", "value": 40.8, "unit": "%"}]}, {"substance": "cotton-CH═N-bacitracin", "values": [{"measurement": "% reduction in the development of colonies", "setting": "Candida albicans", "value": 65, "unit": "%"}, {"measurement": "% reduction in the development of colonies", "setting": "Escherichia coli", "value": 75, "unit": "%"}, {"measurement": "% reduction in the development of colonies", "setting": "Staphylococcus aureus", "value": 95, "unit": "%"}]}]}
